Assay results from ChEMBL document CHEMBL3430912, “GSK Tres Cantos Anti-Kinetoplastid Screening (TCAKS) Data”.

Key:
[1] = target: Sterol 14-alpha demethylase (Trypanosoma cruzi (strain CL Brener), UniProt Q7Z1V1); assay: GSK_TCAKS: pIC50 CYP51 from Trypanosoma cruzi.; format: functional
Trypanosoma cruzi [2] = assay: GSK_TCAKS: pIC50 Trypanosoma cruzi viability assay using beta-GAL activity. This assay was run at single shot at 5uM compound concentration per well. The biological reagents consisted of NIH-3T3 host cells and trypomastigotes parasitic cells; both cell types were set to a 3.3 * 10^5 cells/mL dilution in assay DMEM by means of a CASY cell counter device using a 60um capillary. 6 uL of the mixture were dispensed per well (about 1 * 10^3 host-cells and 1 * 10^3 parasites) with a Multidrop Combi dispenser. […] In all wells, the percentage of DMSO never exceeded 0.5%. Plates incubated for four days at 37C, 5% CO2. The substrate used for the assay fluorescence intensity (FLINT) readout was resorufin-beta-D-galactopiranoside (Sigma-Aldrich) at 5uM per well. It was diluted in PBS supplemented with the soft detergent Igepal (Fluka).; format: functional, organism-based, Mus musculus; settings: Tulahuen, NIH3T3
[3] = system: Trypanosoma brucei brucei; assay: GSK_TCAKS: pIC50 Trypanosoma brucei viability assay using luminiscence. Assay plates (1536-well) were prepared. T. brucei cultures were harvested and counted in a CASY cell counter. A parasite suspension was prepared at a final concentration of 5 * 10^4 cells/mL in complete HMI9 medium and 6uL was dispensed to all wells containing compounds using a Multidrop Combi dispenser. 6uL of HMI9 media with 0.4% DMSO were dispensed to control columns. Plates were incubated for 24 h at 37C, 5% CO2 then tempered for 10 min at room temperature. ATP content was quantified by adding 4 uL of CellTiter-Glo Reagent (Promega) according to the manufacturer's instructions. Luminescence was measured using a ViewLux.; format: functional, organism-based; settings: Lister 427, CASY
Leishmania donovani [4] = assay: (§1) GSK_TCAKS: pIC50 Leishmania donovani Imaging: THP-1 Host Macrophages. Assay plates (384-well) were prepared by adding 250nL of compound to each well. For single shot assay, the final compound concentration was 5 uM. […] Automated image analysis was performed with a script developed on Acapella High Content Imaging and Analysis Software (PerkinElmer). Output: THP-1 cell count were reported for each well.; format: functional, organism-based, Homo sapiens
Leishmania donovani [5] = assay: as §1, with “Infected” for “THP-1 Host”, “Percent of infected macrophage cells” for “THP-1 cell count”; format: functional, organism-based, Homo sapiens; settings: THP-1
Leishmania donovani [6] = assay: GSK_TCAKS: pIC50 Leishmania donovani viability assay using fluorescence intensity. Assay plates (1536-well) were prepared by adding 30nL per well of compound. For single shot assay, the final compound concentration was 5uM. […] Briefly, eGFP LdBOB axenic amastigotes were harvested, fixed and counted in a CASY cell counter (Roche-Applied Science). A final concentration of 1.5 * 10^5 cells per well were prepared in amastigote media containing 500 U/mL penicillin/streptomycin (Invitrogen) and 6uL was dispensed to each experimental well using a Multidrop Combi dispenser (Thermo Scientific). 6uL of assay media was dispensed to control columns used as reference for 100% compound response. Following incubation for 72 h at 37C, 5% CO2, 2 uL of resazurin was added to each well at a final concentration of 0.5 mM in phosphate buffered saline (PBS) with IGEPAL (Sigma-Aldrich), 0.05% (v/v).; format: functional, organism-based
[7] = system: Trypanosoma brucei brucei; assay: GSK_TCAKS: pIC50 Trypanosoma brucei viability assay using fluorescence intensity. Assay plates (1536-well) were prepared by dispensing 25nL of compound solution per well using an Echo acoustic dispenser (Labcyte).; format: functional, organism-based; settings: Lister 427, 2 h
Trypanosoma cruzi [8] = assay: GSK_TCAKS: pIC50 Trypanosoma cruzi Imaging: Amastigotes/Cell. […] Cells were then washed once with PBS before infection. T. cruzi trypomastigotes, collected at days 5 to 8 after infection from LLC-MK2 parasite infected cultures, were allowed to swim out for 4h at 37C from a centrifuged pellet (2,500 rpm/10 min/room temperature). Trypomastigotes were then collected and counted in a CASY Cell Counter. Trypomastigotes, in supplemented DMEM, were added to H9c2 cultures in a multiplicity of infection of 1 and incubated for 18 h. Cells were washed once with PBS before incubation of the infected H9c2 monolayer with trypsin (Life-Technologies) to detach cells from the flask. Cells were counted in a CASY Cell Counter using a 150 um capillary and their density set at 5 * 10^4 cells per mL in supplemented assay DMEM. Infected H9c2 were dispensed into 384-well poly-lysine coated assay plates at 50uL per well using a Multidrop Combi dispenser. After seeding them, the plates were incubated at 37C, 5% CO2 for 72h. Cultures were then fixed and stained by addition of 50 uL of a solution containing 8% formaldehyde and 4 uM DRAQ5 DNA dye (BioStatus, UK) per well. […] Five images were collected per well for reliable statistical analysis. Automated image analysis was performed with a script developed on Acapella High Content Imaging and Analysis Software (PerkinElmer). Output: number of amastigotes per cell as infection level measurement.; format: functional, organism-based, Rattus norvegicus; settings: H9c2, 4 h
Trypanosoma cruzi [9] = assay: (§2) GSK_TCAKS: pIC50 Trypanosoma cruzi Imaging: Infected Cells. […] Cells were then washed once with PBS before infection. T. cruzi trypomastigotes, collected at days 5 to 8 after infection from LLC-MK2 parasite infected cultures, were allowed to swim out for 4h at 37C from a centrifuged pellet (2,500 rpm/10 min/room temperature). Trypomastigotes were then collected and counted in a CASY Cell Counter. Trypomastigotes, in supplemented DMEM, were added to H9c2 cultures in a multiplicity of infection of 1 and incubated for 18 h. Cells were washed once with PBS before incubation of the infected H9c2 monolayer with trypsin (Life-Technologies) to detach cells from the flask. Cells were counted in a CASY Cell Counter using a 150 um capillary and their density set at 5 * 10^4 cells per mL in supplemented assay DMEM. Infected H9c2 were dispensed into 384-well poly-lysine coated assay plates at 50uL per well using a Multidrop Combi dispenser. After seeding them, the plates were incubated at 37C, 5% CO2 for 72h. Cultures were then fixed and stained by addition of 50 uL of a solution containing 8% formaldehyde and 4 uM DRAQ5 DNA dye (BioStatus, UK) per well. […] Five images were collected per well for reliable statistical analysis. Automated image analysis was performed with a script developed on Acapella High Content Imaging and Analysis Software (PerkinElmer). Output: percentage of infected cells per well as a second infection marker.; format: functional, organism-based, Rattus norvegicus; settings: H9c2, 4 h
Leishmania donovani [10] = assay: as §1, with “Amastigotes/Macrophages.” for “THP-1 Host Macrophages.”, “Average number of amastigotes per macrophage” for “THP-1”, “cell” for “cell count”; format: functional, organism-based, Homo sapiens; settings: THP-1
Trypanosoma cruzi [11] = assay: as §2, with “H2C9” for “Trypanosoma cruzi”, “H9c2 Host Cardiomyocytes.” for “Infected Cells.”, “Number” for “percentage”, “H9c2 Host Cardiomyocytes nuclei to determine drug-related cytotoxicity.” for “infected cells per well as a second infection marker.”; format: functional, organism-based, Rattus norvegicus; settings: H9c2, 4 h
[12] = GSK_TCAKS: pIC50 HepG2 human cell line viability assay using luminiscence. […] Seeding density was checked to ensure that new mono-layers were not more than 50% confluent at the time of harvesting. Cell suspension was added to 500 mL of the same medium at a final density of 1.2 * 10^5 cells/mL. This cell suspension was dispensed (25 uL, 3000 cells per well) into 384-well clear-bottom plates using a Multidrop Combi dispenser. Prior to addition of the cell suspension, the screening compounds (250 nL) were pre-dispensed into the plates with an Echo liquid handler. Plates were incubated for 48 h at 37C, 5% CO2. After incubation, plates equilibrated at room temperature for 30 min before proceeding to develop the luminescent signal. The signal developer, CellTiter-Glo Reagent, was allowed to equilibrate at room temperature for 30 min and added to the plates (25uL per well) using a Multidrop Combi dispenser. Plates were left for 10 min at room temperature for stabilization and then read using a ViewLux.; format: toxicity, cell-based

Sterol 14-alpha demethylase, sequence (Q7Z1V1 whole entry): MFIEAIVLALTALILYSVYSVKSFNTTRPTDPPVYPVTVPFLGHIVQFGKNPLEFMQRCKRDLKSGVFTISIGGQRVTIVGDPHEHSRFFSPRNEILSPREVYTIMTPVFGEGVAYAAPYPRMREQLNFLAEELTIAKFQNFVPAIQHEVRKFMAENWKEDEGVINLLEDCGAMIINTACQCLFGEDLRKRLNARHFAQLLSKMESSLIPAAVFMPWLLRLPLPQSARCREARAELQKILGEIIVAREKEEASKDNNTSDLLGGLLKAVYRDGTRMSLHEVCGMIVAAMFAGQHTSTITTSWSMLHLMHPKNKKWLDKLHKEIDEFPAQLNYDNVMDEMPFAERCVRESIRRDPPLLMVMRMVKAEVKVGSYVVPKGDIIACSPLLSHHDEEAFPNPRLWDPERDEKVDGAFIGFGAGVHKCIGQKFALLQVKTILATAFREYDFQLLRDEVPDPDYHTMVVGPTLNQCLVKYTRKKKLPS

With `CCC(=O)N1N=C(c2ccc3c(c2)CCCC3)Sc2c1ncn2C(=O)CC` the IC50 [1] was over 100 µM, the IC50 (Trypanosoma cruzi [2]) was 6.31 µM and the IC50 [3] was 20 µM. It also gave an IC50 (Leishmania donovani [4]) of over 50.1 µM, an IC50 (Leishmania donovani [5]) of 3.16 µM and an IC50 (Leishmania donovani [6]) of 25.1 µM. The IC50 [7] was 15.8 µM, the IC50 (Trypanosoma cruzi [8]) was 12.6 µM and the IC50 (Trypanosoma cruzi [9]) was 20 µM. It also gave an IC50 (Leishmania donovani [10]) of 2.51 µM, an IC50 (Trypanosoma cruzi [11]) of over 50.1 µM and an IC50 at 48 h [12] of over 100 µM.

Molecule `Cc1cc(NC(=O)C2CC2)ccc1OC1CCN(Cc2ccco2)CC1` has an IC50 [1] of 63.1 µM, an IC50 (Trypanosoma cruzi [2]) of 15.8 µM and an IC50 [3] of 0.251 µM. For the same molecule, the IC50 (Leishmania donovani [4]) was 12.6 µM, the IC50 (Leishmania donovani [5]) was 20 µM and the IC50 (Leishmania donovani [6]) was over 50.1 µM. The IC50 [7] was 0.126 µM, the IC50 (Trypanosoma cruzi [8]) was 20 µM and the IC50 (Trypanosoma cruzi [9]) was 39.8 µM. The IC50 (Leishmania donovani [10]) was 12.6 µM, the IC50 (Trypanosoma cruzi [11]) was 39.8 µM and the IC50 at 48 h [12] was 50.1 µM.

For `c1ccc(Nc2nc(-c3ccccn3)cc(N3CCOCC3)n2)cc1`, the IC50 [1] was over 100 µM, the IC50 (Trypanosoma cruzi [2]) was 2 µM and the IC50 [3] was 12.6 µM. For the same molecule, the IC50 (Leishmania donovani [4]) was over 50.1 µM, the IC50 (Leishmania donovani [5]) was 2 µM and the IC50 (Leishmania donovani [6]) was 6.31 µM. The IC50 [7] was 15.8 µM, the IC50 (Trypanosoma cruzi [8]) was 25.1 µM and the IC50 (Trypanosoma cruzi [9]) was over 50.1 µM. The IC50 (Leishmania donovani [10]) was 1.26 µM, the IC50 (Trypanosoma cruzi [11]) was 0.631 µM and the IC50 at 48 h [12] was over 100 µM.

`CCNc1cc(-c2ccccn2)nc(Nc2ccccc2)n1` showed an IC50 [1] of over 100 µM, an IC50 (Trypanosoma cruzi [2]) of 0.794 µM and an IC50 [3] of 12.6 µM. It also gave an IC50 (Leishmania donovani [4]) of 20 µM, an IC50 (Leishmania donovani [5]) of 0.794 µM and an IC50 (Leishmania donovani [6]) of 2.51 µM. It also gave an IC50 [7] of 25.1 µM, an IC50 (Trypanosoma cruzi [8]) of 3.16 µM and an IC50 (Trypanosoma cruzi [9]) of 3.16 µM. For the same molecule, the IC50 (Leishmania donovani [10]) was 0.631 µM, the IC50 (Trypanosoma cruzi [11]) was 0.251 µM and the IC50 at 48 h [12] was 25.1 µM.

In the case of `CCNc1cc(-c2ccccn2)nc(Nc2ccc(OC)cc2)n1`, the IC50 [1] is reported as 39.8 µM, the IC50 (Trypanosoma cruzi [2]) is reported as 0.708 µM and the IC50 [3] is reported as 10 µM. The IC50 (Leishmania donovani [4]) was 25.1 µM, the IC50 (Leishmania donovani [5]) was 0.501 µM and the IC50 (Leishmania donovani [6]) was 1.58 µM. It also gave an IC50 [7] of 12.6 µM, an IC50 (Trypanosoma cruzi [8]) of 2.51 µM and an IC50 (Trypanosoma cruzi [9]) of 3.16 µM. For the same molecule, the IC50 (Leishmania donovani [10]) was 0.398 µM, the IC50 (Trypanosoma cruzi [11]) was 0.316 µM and the IC50 at 48 h [12] was 39.8 µM.

Molecule `OCC1CCCCN1c1cc(-c2ccccn2)nc(Nc2ccccc2)n1` (stereo not drawn) has an IC50 [1] of 79.4 µM, an IC50 (Trypanosoma cruzi [2]) of 0.794 µM and an IC50 [3] of 6.31 µM. The IC50 (Leishmania donovani [4]) was 20 µM, the IC50 (Leishmania donovani [5]) was 1.26 µM and the IC50 (Leishmania donovani [6]) was 3.16 µM. The IC50 [7] was 5.01 µM, the IC50 (Trypanosoma cruzi [8]) was 2 µM and the IC50 (Trypanosoma cruzi [9]) was 3.98 µM. The IC50 (Leishmania donovani [10]) was 1 µM, the IC50 (Trypanosoma cruzi [11]) was 0.501 µM and the IC50 at 48 h [12] was 31.6 µM.

Molecule `Cc1ccc(Nc2nc(-c3ccccn3)cc(N3CCCC(O)C3)n2)cc1` (stereo not drawn) has an IC50 [1] of 25.1 µM, an IC50 (Trypanosoma cruzi [2]) of 0.501 µM and an IC50 [3] of 3.16 µM. For the same molecule, the IC50 (Leishmania donovani [4]) was 25.1 µM, the IC50 (Leishmania donovani [5]) was 0.794 µM and the IC50 (Leishmania donovani [6]) was 2 µM. For the same molecule, the IC50 [7] was 3.16 µM, the IC50 (Trypanosoma cruzi [8]) was 2.51 µM and the IC50 (Trypanosoma cruzi [9]) was 6.31 µM. It also gave an IC50 (Leishmania donovani [10]) of 0.501 µM, an IC50 (Trypanosoma cruzi [11]) of 0.501 µM and an IC50 at 48 h [12] of 39.8 µM.

Molecule `COc1ccc(Nc2nc(-c3ccccn3)cc(N3CCCC(O)C3)n2)cc1` (stereo not drawn) has an IC50 [1] of 50.1 µM, an IC50 (Trypanosoma cruzi [2]) of 0.631 µM and an IC50 [3] of 12.6 µM. It also gave an IC50 (Leishmania donovani [4]) of 25.1 µM, an IC50 (Leishmania donovani [5]) of 1 µM and an IC50 (Leishmania donovani [6]) of 2.51 µM. It also gave an IC50 [7] of 3.98 µM, an IC50 (Trypanosoma cruzi [8]) of 7.94 µM and an IC50 (Trypanosoma cruzi [9]) of 5.01 µM. The IC50 (Leishmania donovani [10]) was 0.794 µM, the IC50 (Trypanosoma cruzi [11]) was 3.98 µM and the IC50 at 48 h [12] was 39.8 µM.

`Cc1nn(-c2nc(N)nc(-c3ccccn3)n2)c(N)c1-c1ccccc1` showed an IC50 [1] of over 100 µM, an IC50 (Trypanosoma cruzi [2]) of 3.98 µM and an IC50 [3] of 6.31 µM. The IC50 (Leishmania donovani [4]) was 20 µM, the IC50 (Leishmania donovani [5]) was 3.16 µM and the IC50 (Leishmania donovani [6]) was 5.01 µM. It also gave an IC50 [7] of 2 µM, an IC50 (Trypanosoma cruzi [8]) of 1.26 µM and an IC50 (Trypanosoma cruzi [9]) of 5.01 µM. It also gave an IC50 (Leishmania donovani [10]) of 2 µM, an IC50 (Trypanosoma cruzi [11]) of 12.6 µM and an IC50 at 48 h [12] of 63.1 µM.
